Measurements from publication PMC3014449 (Molecular immunology, 2010).

Tested on: classical pathway activation of complement in human serum
Assay: Inhibition of complement activation
Assay type: biochemical
Conditions: NA: not active at the highest concentrations tested; for IC50: complement inhibition assay, initiation via the classical pathway, human serum; for IC50 fold change: relative to peptide 1

| Substance | IC50 | IC50 fold change |
| --- | --- | --- |
| Ac-I[CV(NMe)YQDWGAHRC]T-NH2 [Peptide 4] | completely inactive |  |
| Ac-I[CVYQD(NMe)WGAHRC]T-NH2 [Peptide 7] | 25 µM | 0.1 |
| Ac-I[C(NMe)VYQDWGAHRC]T-NH2 [Peptide 3] | completely inactive |  |
| Ac-I[CVYQDWGAHR(NMe)C]T-NH2 [Peptide 12] | 154 µM | 0.02 |
| Ac-I[CVYQDW(NMe)GAHRC]T-NH2 [Peptide 8] | 1.43 µM | 1.7 |
| Ac-I[CVYQ(NMe)DWGAHRC]T-NH2 [Peptide 6] | 44 µM | 0.06 |
| Ac-I[CVYQDWG(NMe)AHRC]T-NH2 [Peptide 9] | completely inactive |  |
| Ac-I[CVY(NMe)QDWGAHRC]T-NH2 [Peptide 5] | 33 µM | 0.07 |
| Ac-I[CVYQDWGA(NMe)HRC]T-NH2 [Peptide 10] | 94 µM | 0.03 |
| Ac-I[CVYQDWGAH(NMe)RC]T-NH2 [Peptide 11] | 32 µM | 0.08 |
